Reference: US12077768B2, “Plants having increased tolerance to herbicides” (BASF AGRO B.V., priority 2013, dated 2024)
Like-named read-outs stand apart in the source and are kept apart here.

Columns and labels:
[1] = test system: empty vector-transformed leaf discs; experiment: PSII yield inhibition (chlorophyll fluorescence, imaging PAM) in empty vector-transformed tobacco leaf discs; format: cell-based; settings: Nicotiana benthamiana, read-out: IC50 of PSII yield inhibition
[2] = test system: mutated PPO sequences (e.g. SEQ ID NOs: 1, 30, 31, 11, 37, and 117) as wildtype or with respective mutations, expressed in leaf discs; experiment: Herbicide tolerance of transiently transformed tobacco leaf discs expressing wildtype or mutated PPO: tolerance factors from IC50 of PSII yield inhibition versus empty vector; format: cell-based, Nicotiana benthamiana; settings: 48 h herbicide treatment

Structure (SMILES): C#CCN1C(=O)C(F)(F)Oc2cc(F)c(-n3c(=O)n(C)c(=S)n(C)c3=O)cc21 [1,5-dimethyl-6-thioxo-3-(2,2,7-trifluoro-3-oxo-4-(prop-2-ynyl)-3,4-dihydro-2H-benzo[b][1,4]oxazin-6-yl)-1,3,5-triazinane-2,4-dione]
- IC50 ([1]; empty vector-transformed leaf discs, treated for 48 h): 11 nM
- Tolerance factor (IC50 of PSII yield inhibition, transformed versus empty vector-transformed leaf discs) ([2]; Bn_PPO2_A_L371E_F394M, Brassica napus, SEQ ID 117): 10
- Tolerance factor (IC50 of PSII yield inhibition, transformed versus empty vector-transformed leaf discs) ([2]; Bn_PPO2_A_L371E_F394V, Brassica napus, SEQ ID 117): 13
- Tolerance factor (IC50 of PSII yield inhibition, transformed versus empty vector-transformed leaf discs) ([2]; Bn_PPO2_A_L371Q_F394M, Brassica napus, SEQ ID 117): 10
- Tolerance factor (IC50 of PSII yield inhibition, transformed versus empty vector-transformed leaf discs) ([2]; Bn_PPO2_A_L371Q_F394V, Brassica napus, SEQ ID 117): 14
- Tolerance factor (IC50 of PSII yield inhibition, transformed versus empty vector-transformed leaf discs) ([2]; Bn_PPO2_A_R99A_F394V, Brassica napus, SEQ ID 117): 1
- Tolerance factor (IC50 of PSII yield inhibition, transformed versus empty vector-transformed leaf discs) ([2]; Bn_PPO2_A_wt, Brassica napus, SEQ ID 117): 1
- Tolerance factor (IC50 of PSII yield inhibition, transformed versus empty vector-transformed leaf discs) ([2]; Gm_PPO2_L367E_F390M, Glycine max, SEQ ID 11): 50
- Tolerance factor (IC50 of PSII yield inhibition, transformed versus empty vector-transformed leaf discs) ([2]; Gm_PPO2_L367E_F390V, Glycine max, SEQ ID 11): 15
- Tolerance factor (IC50 of PSII yield inhibition, transformed versus empty vector-transformed leaf discs) ([2]; Gm_PPO2_L367Q_F390M, Glycine max, SEQ ID 11): 14
- Tolerance factor (IC50 of PSII yield inhibition, transformed versus empty vector-transformed leaf discs) ([2]; Gm_PPO2_L367Q_F390V, Glycine max, SEQ ID 11): 26
- Tolerance factor (IC50 of PSII yield inhibition, transformed versus empty vector-transformed leaf discs) ([2]; Gm_PPO2_R98A_F390V, Glycine max, SEQ ID 11): 14
- Tolerance factor (IC50 of PSII yield inhibition, transformed versus empty vector-transformed leaf discs) ([2]; Gm_PPO2_wt, Glycine max, SEQ ID 11): 1
- Tolerance factor (IC50 of PSII yield inhibition, transformed versus empty vector-transformed leaf discs) ([2]; Os_PPO2_L374E_F397M, Oryza sativa, SEQ ID 37): 2454
- Tolerance factor (IC50 of PSII yield inhibition, transformed versus empty vector-transformed leaf discs) ([2]; Os_PPO2_L374E_F397V, Oryza sativa, SEQ ID 37): 43
- Tolerance factor (IC50 of PSII yield inhibition, transformed versus empty vector-transformed leaf discs) ([2]; Os_PPO2_L374Q_F397M, Oryza sativa, SEQ ID 37): 14
- Tolerance factor (IC50 of PSII yield inhibition, transformed versus empty vector-transformed leaf discs) ([2]; Zm_PPO2_L410E_F433M, Zea mays, SEQ ID 30, 31): 8766
- Tolerance factor (IC50 of PSII yield inhibition, transformed versus empty vector-transformed leaf discs) ([2]; Zm_PPO2_L410Q_F433M, Zea mays, SEQ ID 30, 31): 385
- Tolerance factor (IC50 of PSII yield inhibition, transformed versus empty vector-transformed leaf discs) ([2]; Zm_PPO2_L410Q_F433V, Zea mays, SEQ ID 30, 31): 15
- Tolerance factor (IC50 of PSII yield inhibition, transformed versus empty vector-transformed leaf discs) ([2]; Zm_PPO2_R130A_F433V, Zea mays, SEQ ID 30, 31): 8766

Structure (SMILES): CC(C)N(C)S(=O)(=O)NC(=O)c1cc(-n2c(=O)cc(C(F)(F)F)n(C)c2=O)c(F)cc1Cl [Saflufenacil, saflufenacil]
- IC50 ([1]; 48 h): 110 nM
